# Data reported in patent US20150147309A1, “ALLOSTERIC CHAPERONES AND USES THEREOF” (Fondazione Telethon, priority 2012, published 2015).
# What was measured:
# [1] = target: T1, rhGAA (Homo sapiens, UniProt P10253); experiment: Effect of compounds on rhGAA stability at neutral pH (residual α-glucosidase activity); assay type: biochemical; conditions: pH 7.0, 37° C., 0.1-10 mM, up to 48 hrs
# T1 construct: purchased Genzyme Co, Cambridge, Mass., USA
# Protocol: (§1) The standard activity assay of rhGAA was performed in 200 μl by using 5 μg of enzyme at 37° C. in 100 mM sodium acetate pH 4.0 and 20 mM 4NP-Glc. The reaction was started by adding the enzyme; after suitable incubation time (1-2 min) the reaction was blocked by adding 800 μL of 1 M sodium carbonate pH 10.2. Absorbance was measured at 420 nm at room temperature, the extinction coefficient to calculate enzymatic units was 17.2 mM^−1 cm^−1. One enzymatic unit is defined as the amount of enzyme catalyzing the conversion of 1 μmol substrate into product in 1 min, under the indicated conditions.
# (§2) The effect of different pHs on the rhGAA stability was measured by preparing reaction mixtures containing 0.75 mg mL^−1 of enzyme in the presence of 50 mM citrate/phosphate (pH 3.0-7.0) at a certain pH. After incubations at 37° C., aliquots were withdrawn at the times indicated and the residual α-glucosidase activity was measured with the standard assay. To test the effect on the pH stability of rhGAA of chemical chaperons and of the other molecules, experiments were performed as described above by adding to the reaction mixtures the amounts of the different compounds indicated in the text.
# [2] = target: T2, rh-alpha-Gal A in Fabry disease cell lines (Homo sapiens, UniProt P06280); experiment: Correction by rh-alpha-Gal A in Fabry disease cell lines with chaperone; assay type: cell-based; conditions: three Fabry disease cell lines
# T2 construct: purchased Genzyme Co, Cambridge, Mass., USA
# T2 sequence (P06280 32-429): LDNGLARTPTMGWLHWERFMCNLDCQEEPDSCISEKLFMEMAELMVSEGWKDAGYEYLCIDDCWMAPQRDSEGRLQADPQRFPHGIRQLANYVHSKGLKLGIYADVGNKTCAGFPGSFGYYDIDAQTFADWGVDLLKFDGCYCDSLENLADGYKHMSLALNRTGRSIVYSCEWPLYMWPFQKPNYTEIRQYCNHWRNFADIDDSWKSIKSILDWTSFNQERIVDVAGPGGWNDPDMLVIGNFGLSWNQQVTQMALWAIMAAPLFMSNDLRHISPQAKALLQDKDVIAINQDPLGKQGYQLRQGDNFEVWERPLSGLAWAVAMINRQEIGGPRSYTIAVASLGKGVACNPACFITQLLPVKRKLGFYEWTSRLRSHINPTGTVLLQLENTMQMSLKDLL
# Protocol: Fibroblasts from PD and Fabry disease patients were derived from skin biopsies after obtaining the informed consent of patients. Normal age-matched control fibroblasts were available in the laboratory of the Department of Pediatrics, Federico II University of Naples. All cell lines were grown at 37° C. with 5% CO2 in Dulbecco's modified Eagle's medium (Invitrogen, Grand Island, N.Y.) and 10% fetal bovine serum (Sigma-Aldrich, St Louis, Mo.), supplemented with 100 U/ml penicillin and […] streptomycin.
# [3] = target: T1, rhGAA; experiment: Thermal stability scans of rhGAA (SYPRO Orange); assay type: binding; conditions: pH 7.4; for Tm of rhGAA in the presence of chaperone: NAC 10 mM, DNJ 0.1 mM
# Protocol: Thermal stability scans of rhGAA were performed as described in [Flanagan et al. 2009]. Briefly, 2.5 μg of enzyme were incubated in the absence and in the presence of NAC and DNJ, 10 mM and 0.1 mM, respectively, SYPRO Orange dye, and sodium phosphate 25 mM buffer, 150 mM NaCl, pH 7.4 or sodium acetate 25 mM buffer, 150 mM NaCl, pH 5.2. Thermal stability scans were performed at 1° C./min in the range 25-95° C. in a Real Time LightCycler (Bio-Rad). SYPRO Orange fluorescence was normalized to maximum fluorescence value within each scan to obtain relative fluorescence. Melting temperatures were calculated according to (Niesen et al. 2007).
# [4] = target: T1, rhGAA; experiment: Effect on rhGAA enzyme activity (standard activity assay); assay type: biochemical; conditions: three concentrations (FIG. 4)
# Protocol: as §1
# [5] = target: T3, rhGAA in PD fibroblasts (Homo sapiens, UniProt P10253); experiment: Correction of GAA activity by rhGAA in PD fibroblasts with chaperone (synergy); assay type: cell-based; conditions: patient 3 (FIG. 7)
# T3 construct: purchased Genzyme Co, Cambridge, Mass., USA
# Protocol: To study the rhGAA uptake and correction of GAA activity in PD fibroblasts, the cells were incubated with […] rhGAA for 24 hours, in the absence or in the presence of 10 mM NAC. Untreated cells or were used for comparison. After the incubation the cells were harvested by trypsinization and disrupted by 5 cycles of freezing and thawing.
# GAA activity was assayed by using the fluorogenic substrate 4-methylumbelliferyl-alpha-D-glucopyranoside (Sigma-Aldrich) according to a published procedure [Porto et al, 2009]. Briefly, 25 micrograms of protein were incubated with the fluorogenic substrate (2 mM) in 0.2 M acetate buffer, pH 4.0, for 60 minutes in incubation mixtures of 100 μl. The reaction was stopped by adding 700 μl of glycine-carbonate buffer, pH 10.7. Fluorescence was read at 365 nm (excitation) and 450 nm (emission) on a Turner Biosystems Modulus fluorometer. Protein concentration in cell homogenates was measured by the Bradford assay (Biorad, Hercules, Calif.).
# To study GAA immunoreactive material, fibroblast extracts were subjected to western blot analysis. The cells were harvested, washed in phosphate-buffered saline, resuspended in water, and disrupted by five cycles of freeze-thawing. Equal amounts (20 μg protein) of fibroblast extracts were subjected to sodium dodecyl sulfate polyacrylamide gel electrophoresis and proteins were transferred to PVD membrane (Millipore, Billerica, Mass.). An anti-human GAA antiserum was used as primary antibody to detect GAA polypeptides; to detect β-actin, a monoclonal mouse antibody was used Immunoreactive proteins were detected by chemiluminescence (ECL, Amersham, Freiburg, Germany)
# To study the distribution of AlexaFluor546 labeleld GAA, PD fibroblasts grown on coverslips were fixed using methanol, permeabilized using 0.1% saponin and locked with 0.01% saponin, 1% fetal bovine serum diluted in phosphate-buffered saline for 1 hour. The cells were incubated with the primary antibodies, with secondary antibodies in blocking solution and then mounted with vectashield mounting medium (Vector Laboratories, Burlingame, Calif.). Samples were examined with a Zeiss LSM 5 10 laser scanning confocal microscope. Authors used Argon/2 (458, 477, 488, and 514 nanometers) and HeNe1 (543 nanometers) excitation lasers, which were switched-on separately to reduce crosstalk of the two fluorochromes. The green and the red emissions were separated by a dichroic splitter (FT 560) and filtered (515-540-nm bandpass filter for green and >610-nm long pass filter for red emission). A threshold was applied to the images to exclude ˜99% of the signal found in control images.
# [6] = Effect of pH on rhGAA stability; assay type: physicochemical
# Protocol: as §1, §2
compound,measurement,setting,value
"OCCS [2-mercapto-ethanol, reference compound]",stabilization of rhGAA at neutral pH,[1],did not prevent enzyme inactivation
"N[C@@H](CS)C(=O)O [Cys, reference compound]",stabilization of rhGAA at neutral pH,[1],did not prevent enzyme inactivation
"OC[C@H]1NC[C@H](O)[C@@H](O)[C@H]1O [DGJ, 1-deoxy-galactonojiirimycin, reference compound]",enhancement of correction by rh-alpha-Gal A,[2],largely enhanced
"OC[C@H]1NC[C@H](O)[C@@H](O)[C@@H]1O [DNJ, 1-deoxy-nojiirimycin, reference compound]",Tm of rhGAA in the presence of chaperone,[3],65.9±0.3 °C
"NCC(=O)O [Gly, reference compound]",stabilization of rhGAA at neutral pH,[1],did not prevent enzyme inactivation
"CC(=O)NCC(=O)O [NAG, N-acetyl glycine]",stabilization of rhGAA at neutral pH,[1],remarkable stabilization
same,effect on the activity of the enzyme (rhGAA),[4],no effect
"CC(=O)N[C@@H](CO)C(=O)O [NAS, N-acetyl serine]",stabilization of rhGAA at neutral pH,[1],remarkable stabilization
same,effect on the activity of the enzyme (rhGAA),[4],no effect
"CCCCN1C[C@H](O)[C@@H](O)[C@H](O)[C@H]1CO [NB-DNJ, N-butyl-deoxynojirimycin, reference compound]",Tm of rhGAA in the presence of chaperone,[3],65.9±0.3 °C
"N[C@@H](CO)C(=O)O [Ser, reference compound]",stabilization of rhGAA at neutral pH,[1],did not prevent enzyme inactivation
"O=C(O[C@@H]1Cc2c(O)cc(O)cc2O[C@@H]1c1cc(O)c(O)c(O)c1)c1cc(O)c(O)c(O)c1 [epigallo chatechingallate, epigallo catechingallate, reference compound]",enhancement of rhGAA in PD cultured fibroblasts,[5],did not enhance
"Oc1ccc(C=Cc2cc(O)cc(O)c2)cc1 [resveratrol, reference compound]",enhancement of rhGAA in PD cultured fibroblasts,[5],did not enhance
"rhGAA: recombinant human GAA (alglucosidase, Myozyme) from Genzyme, used for enzyme replacement therapy",Tm of rhGAA in the absence of chaperone,[3],50.2±0.1 °C
same,rhGAA residual activity after 4 hours,"[6]; pH 3.0 or 7.0, 37° C., 4 hours",approximately 50%
same,rhGAA residual activity after 16 hours,"[6]; pH 3.0 or 7.0, 37° C., 16 hours",less than 10%
same,rhGAA stability at pH 5.0,"[6]; pH 5.0, 37° C., up to 24 hours",stable
